Consider four compounds from patent publication US4663457A, “1-cyclopropyl-6,7-dihalo-1,4-dihydro-4-oxo-1,8-naphthyridine -3-carboxylic acid and their esters, useful as intermediates for preparing the 7-amine substituted naphthyridines” (Warner-Lambert Company, priority 1985, dated 1987).

The structures appear in SMILES notation. Converted amounts (≈) assume the structure as drawn. Read-outs that look alike come from different tables or passages of the source.

Common to all, as to test: in vitro antibacterial activity, MIC by microtitration dilution method
Common to all, as to format: cell-based

Assay [1] relates to Enterobacter cloacae MA 2646. Particulars: MA2646, read-out: Minimal Inhibitory Concentration MIC. The text has this: (§1) The compounds of the invention display antibacterial activity when tested by the microtitration dilution method as described in Heifetz, et al, Antimicr. Agents & Chemoth., 6, 124 (1974), which is incorporated herein by reference.
(§2) By use of the above referenced method, the followed minimum inhibitory concentration values (MICs in μg/ml) were obtained for representative compounds of the invention.

In assay [2] the test system is Escherichia coli Vogel. Particulars: read-out: Minimal Inhibitory Concentration MIC.
Description: as §1, §2

In assay [3] the test system is Klebsiella pneumoniae MGH-2. As to conditions: MGH2, read-out: Minimal Inhibitory Concentration MIC.
Description: as §1, §2

The subject of assay [4] is Proteus rettgeri M 1771. As to conditions: Providencia rettgeri, M1771, read-out: Minimal Inhibitory Concentration MIC.
Description: as §1, §2

For assay [5], the system named is Pseudomonas aeruginosa UI-18. Particulars: UI18, read-out: Minimal Inhibitory Concentration MIC.
Description: as §1, §2

Assay [6] deals with Staphylococcus aureus H 228. As to conditions: H228, read-out: Minimal Inhibitory Concentration MIC.
Description: as §1, §2

The test system of assay [7] is Staphylococcus aureus UC-76. Particulars: UC76, read-out: Minimal Inhibitory Concentration MIC.
Description: as §1, §2

Assay [8] deals with Streptococcus faecalis MGH-2. As to conditions: Enterococcus faecalis, MGH2, read-out: Minimal Inhibitory Concentration MIC.
Description: as §1, §2

The subject of assay [9] is Streptococcus pneumoniae SV-1. As to conditions: SV1, read-out: Minimal Inhibitory Concentration MIC.
Description: as §1, §2

In assay [10] the test system is Streptococcus pyogenes C-203. The source says:
Agents & Chemoth., 6, 124 (1974), which is incorporated herein by reference.

The mark [11] stands for this setting: C203, in vitro, Streptococcus pyogenes C-203, read-out: Minimal Inhibitory Concentration MIC.

Turning to `O=C(O)c1cn(C2CC2)c2nc(N3CCNCC3)c(F)cc2c1=O` [Ex. 1, 1-Cyclopropyl-6-fluoro-1,4-dihydro-4-oxo-7-(1-piperazinyl)-1,8-naphthyridine-3-carboxylic acid], the MIC is 0.1 µg/mL (≈ 0.301 µM) in [1]; ≤ 0.1 µg/mL in assay [2]; 0.1 µg/mL (≈ 0.301 µM) in assay [3]; 0.2 µg/mL (≈ 0.602 µM) in assay [4]; 0.2 µg/mL (≈ 0.602 µM) in assay [5]; 1.6 µg/mL (≈ 4.81 µM) in assay [6]. Further, the MIC in assay [7] worked out at 0.4 µg/mL (≈ 1.2 µM); in assay [8] it was 1.6 µg/mL (≈ 4.81 µM); in assay [9], 1.6 µg/mL (≈ 4.81 µM); in assay [10] (setting [11]), 1.6 µg/mL (≈ 4.81 µM).

For `CN1CCN(c2nc3c(cc2F)c(=O)c(C(=O)O)cn3C2CC2)CC1` [Ex. 2, 1-Cyclopropyl-6-fluoro-1,4-dihydro-7-(4-methyl-1-piperazinyl)-4-oxo-1,8-naphthyridine-3-carboxylic acid], the MIC is ≤ 0.1 µg/mL in [1]; ≤ 0.1 µg/mL in [2]; ≤ 0.1 µg/mL in assay [3]; 0.4 µg/mL (≈ 1.15 µM) in assay [4]; 0.4 µg/mL (≈ 1.15 µM) in assay [5]; 0.4 µg/mL (≈ 1.15 µM) in assay [6]. The MIC was 0.1 µg/mL (≈ 0.289 µM) in assay [7]; 0.8 µg/mL (≈ 2.31 µM) in assay [8]; 6.3 µg/mL (≈ 18.2 µM) in assay [9]; 3.1 µg/mL (≈ 8.95 µM) in [10] (Streptococcus pyogenes, C203, read-out: Minimal Inhibitory Concentration MIC).

Turning to `O=C(O)c1cn(C2CC2)c2c(F)c(N3CCNCC3)c(F)cc2c1=O` [Ex. 3, 1-Cyclopropyl-6,8-difluoro-1,4-dihydro-4-oxo-7-(1-piperazinyl)-3-quinolinecarboxylic acid], the MIC was ≤ 0.1 µg/mL in assay [1]; ≤ 0.1 µg/mL in assay [2]; ≤ 0.1 µg/mL in assay [3]; ≤ 0.1 µg/mL in assay [4]; 0.2 µg/mL (≈ 0.573 µM) in [5]; 0.4 µg/mL (≈ 1.15 µM) in assay [6]. For the same compound, the MIC in [7] was ≤ 0.1 µg/mL; in [8] it was 0.4 µg/mL (≈ 1.15 µM); in assay [9], 0.8 µg/mL (≈ 2.29 µM); in [10] (setting [11]) it was 0.4 µg/mL (≈ 1.15 µM).

As for `O=C(O)c1cn(C2CC2)c2c(F)c(N3CCC(O)C3)c(F)cc2c1=O` (stereo not shown) [Ex. 4, 1-Cyclopropyl-6,8-difluoro-1,4-dihydro-7-(3-hydroxy-1-pyrrolidinyl)-4-oxo-3-quinolinecarboxylic acid], the MIC stood at 0.2 µg/mL (≈ 0.571 µM) in assay [1]; 0.1 µg/mL (≈ 0.285 µM) in assay [2]; 0.05 µg/mL (≈ 0.143 µM) in [3]; 0.2 µg/mL (≈ 0.571 µM) in assay [4]; 0.8 µg/mL (≈ 2.28 µM) in assay [5]; 0.025 µg/mL (≈ 0.0714 µM) in assay [6]. The MIC in assay [7] is 0.013 µg/mL (≈ 0.0371 µM); in [8], 0.1 µg/mL (≈ 0.285 µM); in [9] it was 0.4 µg/mL (≈ 1.14 µM); in [10] (setting [11]), 0.4 µg/mL (≈ 1.14 µM).
